Data on 33 compounds can be found in US11382918B2, “Methods for treating Huntington's Disease” (PTC Therapeutics, Inc., priority 2017, dated 2022).

Structures are written as SMILES. Where a name gives a salt, the structure may show the parent alone.

For the test, the system named is Endogenous Huntingtin Protein (HTT). The experiment in a line: Endogenous Huntingtin Protein Assay (ELISA-based MSD electrochemiluminescence). Format: cell-based. As to conditions: Table 1. The method in brief: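 MSD electrochemiluminescence sandwich ELISA for endogenous HTT: sample lysates captured overnight at 4 °C on MW1 (expanded polyglutamine) or MAB2166 antibody. Detection used rabbit monoclonal #5656S, then goat anti-rabbit SULFO-TAG antibody, each 1 h at room temperature.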
(ELISA stands for enzyme-linked immunosorbent assay.)
Compound `COc1ccc(-c2cc(=O)n3cc(N4CCC(N(C)C)CC4)cc(C)c3n2)cc1OC` [compound 261, 2-(3,4-dimethoxyphenyl)-7-[4-(dimethylamino)piperidin-1-yl]-9-methyl-4H-pyrido[1,2-a]pyrimidin-4-one] returned an IC50 of 3000 to 33000 nM. In turn, `Cc1cn2nc(-c3cc(=O)n4cc(N5CCN(C)CC5)ccc4n3)cc2c(C2CC2)n1` [compound 684, 2-(4-cyclopropyl-6-methylpyrazolo[1,5-a]pyrazin-2-yl)-7-(4-methylpiperazin-1-yl)-4H-pyrido[1,2-a]pyrimidin-4-one] yielded a half-inhibitory concentration (IC50) of 3000 to 33000 nM. The same measure for `Cc1cn2cc(-c3cc(=O)n4cc(N5CCNCC5)ccc4n3)cc(C)c2n1` [compound 141, 2-(2,8-dimethylimidazo[1,2-a]pyridin-6-yl)-7-(piperazin-1-yl)-4H-pyrido[1,2-a]pyrimidin-4-one]: 1000 to 3000 nM; for `Cc1cc(-c2cc(=O)n3cc(C4CCNCC4)ccc3n2)cc2cn(C)nc12` [compound 739, 2-(2,7-dimethyl-2H-indazol-5-yl)-7-(piperidin-4-yl)-4H-pyrido[1,2-a]pyrimidin-4-one]: 500 to 1000 nM; for `Cc1cn2nc(-c3cc(=O)n4cc(N5CCN(C)CC5)ccc4n3)cc2c(C)n1` [compound 170, 2-(4,6-dimethylpyrazolo[1,5-a]pyrazin-2-yl)-7-(4-methylpiperazin-1-yl)-4H-pyrido[1,2-a]pyrimidin-4-one]: 3000 to 33000 nM.

The compound `Cc1cn2nc(-c3cc(=O)n4cc(C5=CCN(C)CC5)cc(C)c4n3)cc2c(C)n1` [compound 481, 2-(4,6-dimethylpyrazolo[1,5-a]pyrazin-2-yl)-9-methyl-7-(1-methyl-1,2,3,6-tetrahydropyridin-4-yl)-4H-pyrido[1,2-a]pyrimidin-4-one] registered an IC50 of 3000 to 33000 nM.

With `O=c1cc(-c2cn[nH]c2)nc2ccc(N3CCNCC3)cn12` [compound 855, 7-(piperazin-1-yl)-2-(1H-pyrazol-4-yl)-4H-pyrido[1,2-a]pyrimidin-4-one hydrochloride (1:1)], the 50% inhibitory concentration (IC50) lay within 3000 to 33000 nM. For `O=c1cc(-c2cnn(C3CCCCO3)c2)nc2ccc(N3CCNCC3)cn12` (stereo not drawn) [compound 854, 7-(piperazin-1-yl)-2-[1-(tetrahydro-2H-pyran-2-yl)-1H-pyrazol-4-yl]-4H-pyrido[1,2-a]pyrimidin-4-one], the concentration for half-maximal inhibition (IC50) was in the range of 3000 to 33000 nM.

Consider `Cc1cn2cc(-c3cc(=O)n4cc(N5C[C@@H](C)N[C@@H](C)C5)ccc4n3)cc(C(F)(F)F)c2n1` [compound 736, 7-[(3R,5S)-3,5-dimethylpiperazin-1-yl]-2-[2-methyl-8-(trifluoromethyl)imidazo[1,2-a]pyridin-6-yl]-4H-pyrido[1,2-a]pyrimidin-4-one], for which the IC50 fell in the range of 3000 to 33000 nM. The result for `Cc1cc2cc(-c3cc(=O)n4cc(N5CCN(C)CC5)ccc4n3)oc2c(C)n1` [compound 487, 2-(5,7-dimethylfuro[2,3-c]pyridin-2-yl)-7-(4-methylpiperazin-1-yl)-4H-pyrido[1,2-a]pyrimidin-4-one] reads 500 to 1000 nM. The same measure for `Cc1cn2nc(-c3cc(=O)n4cc(N(C)C5CC(C)(C)NC(C)(C)C5)cc(C)c4n3)cc2c(C)n1` [compound 852, 2-(4,6-dimethylpyrazolo[1,5-a]pyrazin-2-yl)-9-methyl-7-[methyl(2,2,6,6-tetramethylpiperidin-4-yl)amino]-4H-pyrido[1,2-a]pyrimidin-4-one]: 3000 to 33000 nM; for `Cc1nc2ccc(-c3cc(=O)n4cc(N5CCNCC5)ccc4n3)cc2s1` [compound 219, 2-(2-methyl-1,3-benzothiazol-6-yl)-7-(piperazin-1-yl)-4H-pyrido[1,2-a]pyrimidin-4-one]: 3000 to 33000 nM; for `Cc1cn2cc(-c3ccc4nc(N5CCNCC5)cc(=O)n4c3)cc(F)c2n1` [compound 268, 7-(8-fluoro-2-methylimidazo[1,2-a]pyridin-6-yl)-2-(piperazin-1-yl)-4H-pyrido[1,2-a]pyrimidin-4-one]: 3000 to 33000 nM.

With `CCc1nc(C)cn2nc(-c3cc(=O)n4cc(C5CCN(C(C)C)CC5)ccc4n3)cc12` [compound 679, 2-(4-ethyl-6-methylpyrazolo[1,5-a]pyrazin-2-yl)-7-[1-(propan-2-yl)piperidin-4-yl]-4H-pyrido[1,2-a]pyrimidin-4-one], the IC50 was in the range of 3000 to 33000 nM. On to `Cc1cn2cc(-c3cc(=O)n4cc(N5CCNCC5)ccc4n3)nc2c(C)n1` [compound 118, 2-(6,8-dimethylimidazo[1,2-a]pyrazin-2-yl)-7-(piperazin-1-yl)-4H-pyrido[1,2-a]pyrimidin-4-one], for which the half-maximal inhibitory concentration (IC50) fell in the range of 3000 to 33000 nM. The same measure for `Cc1cn2cc(-c3cc(=O)n4cc(N5CCNCC5)ccc4n3)cc(C(F)(F)F)c2n1` [compound 733, 2-[2-methyl-8-(trifluoromethyl)imidazo[1,2-a]pyridin-6-yl]-7-(piperazin-1-yl)-4H-pyrido[1,2-a]pyrimidin-4-one]: 1000 to 3000 nM; for `Cc1cc(N2CCN[C@H](C)C2)cn2c(=O)cc(-c3ccc4nn(C)cc4c3)nc12` [compound 755, 9-methyl-2-(2-methyl-2H-indazol-5-yl)-7-[(3R)-3-methylpiperazin-1-yl]-4H-pyrido[1,2-a]pyrimidin-4-one]: 1000 to 3000 nM. The result for `CN1CCN(c2ccc3nc(-c4ccc5c(cnn5C)c4)cc(=O)n3c2)CC1` [compound 489, 2-(1-methyl-1H-indazol-5-yl)-7-(4-methylpiperazin-1-yl)-4H-pyrido[1,2-a]pyrimidin-4-one] reads 3000 to 33000 nM; that for `Cc1cn2cc(-c3cc(=O)n4cc(N5CCNCC5)ccc4n3)cc(F)c2n1` [compound 209, 2-(8-fluoro-2-methylimidazo[1,2-a]pyridin-6-yl)-7-(piperazin-1-yl)-4H-pyrido[1,2-a]pyrimidin-4-one], 100 to 500 nM; that for `Cc1cn2nc(-c3cc(=O)n4cc(C5CCN(CCO)CC5)ccc4n3)cc2c(C)n1` [compound 530, 2-(4,6-dimethylpyrazolo[1,5-a]pyrazin-2-yl)-7-[1-(2-hydroxyethyl)piperidin-4-yl]-4H-pyrido[1,2-a]pyrimidin-4-one], 3000 to 33000 nM. The result for `CCN1CCC(c2cn3c(=O)cc(-c4cc5c(C)nc(C)cn5n4)nc3cn2)CC1` [compound 504, 2-(4,6-dimethylpyrazolo[1,5-a]pyrazin-2-yl)-7-(1-ethylpiperidin-4-yl)-4H-pyrazino[1,2-a]pyrimidin-4-one] reads 100 to 500 nM; that for `CCc1nc(C)cn2cc(-c3cc(=O)n4cc(N5C[C@@H](C)N[C@@H](C)C5)ccc4n3)cc12` [compound 748, 7-[(3R,5S)-3,5-dimethylpiperazin-1-yl]-2-(1-ethyl-3-methylpyrrolo[1,2-a]pyrazin-7-yl)-4H-pyrido[1,2-a]pyrimidin-4-one], 500 to 1000 nM; that for `COc1cc(O)ccc1-c1cc(=O)n2cc(C3=CCN(C(=O)OC(C)(C)C)CC3)ccc2n1` [compound 847, tert-butyl 4-[2-(4-hydroxy-2-methoxyphenyl)-4-oxo-4H-pyrido[1,2-a]pyrimidin-7-yl]-3,6-dihydropyridine-1(2H)-carboxylate], 3000 to 33000 nM. Compound `Cc1cn2nc(-c3cc(=O)n4cc(N5CCC(C)(N)CC5)ccc4n3)cc2c(C)n1` [compound 584, 7-(4-amino-4-methylpiperidin-1-yl)-2-(4,6-dimethylpyrazolo[1,5-a]pyrazin-2-yl)-4H-pyrido[1,2-a]pyrimidin-4-one] showed a 50% inhibitory concentration (IC50) of 3000 to 33000 nM. The result for `Cc1cn2nc(-c3cc(=O)n4cc(C5=CCN(C)CC5)ccc4n3)cc2c(C)n1` [compound 350, 2-(4,6-dimethylpyrazolo[1,5-a]pyrazin-2-yl)-7-(1-methyl-1,2,3,6-tetrahydropyridin-4-yl)-4H-pyrido[1,2-a]pyrimidin-4-one] reads 3000 to 33000 nM. The same measure for `Cc1cn2cc(-c3cc(=O)n4cc(N5CCN[C@H](C)C5)ccc4n3)cc2c(C)n1` [compound 713, 2-(1,3-dimethylpyrrolo[1,2-a]pyrazin-7-yl)-7-[(3R)-3-methylpiperazin-1-yl]-4H-pyrido[1,2-a]pyrimidin-4-one]: 100 to 500 nM; for `Cn1ncc2cc(-c3cc(=O)n4cc(C5=CCNCC5)ncc4n3)ccc21` [compound 505, 2-(1-methyl-1H-indazol-5-yl)-7-(1,2,3,6-tetrahydropyridin-4-yl)-4H-pyrazino[1,2-a]pyrimidin-4-one]: 3000 to 33000 nM; for `CCN1CCC(c2cn3c(=O)cc(-c4cc(C)c5nn(C)cc5c4)nc3c(C)n2)CC1` [compound 874, 2-(2,7-dimethyl-2H-indazol-5-yl)-7-(1-ethylpiperidin-4-yl)-9-methyl-4H-pyrazino[1,2-a]pyrimidin-4-one hydrochloride (1:1)]: 100 to 500 nM.

Regarding `Cc1nc2ccc(-c3cc(=O)n4cc(N5CCNC(C)(C)C5)ccc4n3)cc2o1` [compound 194, 7-(3,3-dimethylpiperazin-1-yl)-2-(2-methyl-1,3-benzoxazol-6-yl)-4H-pyrido[1,2-a]pyrimidin-4-one], the half-maximal inhibitory concentration (IC50) lay within 3000 to 33000 nM. Consider `Cn1cc2cc(-c3cc(=O)n4cc(C5CCNCC5)ncc4n3)ccc2n1` [compound 566, 2-(2-methyl-2H-indazol-5-yl)-7-(piperidin-4-yl)-4H-pyrazino[1,2-a]pyrimidin-4-one], for which the IC50 was in the range of 100 to 500 nM. Consider `Cc1cc2cc(-c3cc(=O)n4cc(N5CCNCC5)ccc4n3)oc2c(C)n1` [compound 486, 2-(5,7-dimethylfuro[2,3-c]pyridin-2-yl)-7-(piperazin-1-yl)-4H-pyrido[1,2-a]pyrimidin-4-one], for which the IC50 was in the range of 500 to 1000 nM.

The compound `CCc1cc(-c2cc(=O)n3cc(N4CCN(CCO)[C@H](C)C4)ccc3n2)cn2cc(C)nc12` [compound 649, 2-(8-ethyl-2-methylimidazo[1,2-a]pyridin-6-yl)-7-[(3R)-4-(2-hydroxyethyl)-3-methylpiperazin-1-yl]-4H-pyrido[1,2-a]pyrimidin-4-one] returned a concentration for half-maximal inhibition (IC50) of 500 to 1000 nM. The result for `CCN1CC=C(c2ccc3nc(-c4cc(F)c5nc(C)oc5c4)cc(=O)n3c2)CC1` [compound 318, 7-(1-ethyl-1,2,3,6-tetrahydropyridin-4-yl)-2-(4-fluoro-2-methyl-1,3-benzoxazol-6-yl)-4H-pyrido[1,2-a]pyrimidin-4-one] reads 1000 to 3000 nM.

What is called IC50 is the concentration needed to halve the response being measured. Read a high IC50 as weaker potency in that assay.
